One substance from patent US20120308570A1, “METHODS FOR TREATING DISEASES” (priority 2009, published 2012) can be followed below.

What all share (type): cell-based, mouse
Data set [1] concerns Spsb1 mRNA. The data set is described as follows: Spsb1 knockdown in BMDM by Q-PCR. The settings on record: 10 ng/ml LPS 4 h, compared to non-sense control shRNA, p<0.0001. How it is done:
Bone marrow-derived macrophages were generated as described and replated at 1.0×10^6 cells/well on 6-well plates (Costar) in DME containing 10% FCS and 20% L-cell conditioned media. The following day, triplicate cultures were incubated with murine IFNγ (10 ng/ml) and LPS (20 ng/ml), unless otherwise indicated. Total cellular RNA was isolated using the RNeasy kit (QIAGEN, Valencia, Calif.) and first strand cDNA synthesis performed using Superscript II RNASE H— reverse transcriptase (Invitrogen, Carlsbad, Calif.) according to the manufacturer's instructions. Real-time PCR was performed on an ABI Prism 7900HT sequence detection system (Applied Biosystems, Foster City, Calif.). Cycling conditions were as follows: initial denaturation (95° C. for 15 min), followed by 40 cycles of 94° C. for 15 s, 50° C. (SSB-1, -4), 60° C. (SSB-2, -3) or 49° C. (GAPDH) for 30 s and 72° C. for 15 s with a transition rate of 20° C./s and a single fluorescence measurement, melting curve program (60° C.-95° C., with a heating rate of 0.1° C./s and continuous fluorescence measurement) and a final cooling step to 40° C. All PCR reactions were performed using the QuantiTect SYBR Green PCR Kit (QIAGEN) in 10 μl reactions containing […] of forward and reverse primers, 5 μl of QuantiTect Master Mix and 4 μl of cDNA (diluted 1 in 5). […]

The test system of data set [2] is iNOS protein in BMDM. The experiment in a line: iNOS expression in shRNA infected BMDM (Western blot). How it is done: Bone marrow-derived macrophages were generated as described and re-plated at 1.0×10^6 cells/well on 6-well plates (Costar) in DME containing 10% FCS and 20% L-cell conditioned media. Cells were incubated with IFNγ and LPS as described, and lysed in KALB lysis buffer (Nicholson et al., 1995) containing protease inhibitors (Complete Cocktail tablets, Roche), 1 mM phenylmethylsulphonyl fluoride, 1 mM Na3VO4 and 1 mM NaF. Proteins were immunoprecipitated using anti-Flag antibody conjugated to Sepharose (M2; EASTMAN KODAK). Proteins were separated by sodium dodecyl sulphatepolyacrylamide gel electrophoresis (SDS-PAGE) under reducing conditions and electrophoretically transferred to Biotrace PVDF membranes (Pall Corp. Ann Arbor, Mich.). Membranes were blocked overnight in 10% w/v skim milk and incubated with primary antibody for 2 h. Antibody binding was visualized with either peroxidase-conjugated goat anti-rat immunoglobulin (Southern Biotech) or peroxidase-conjugated sheep anti-rabbit immunoglobulin (Chemicon, Melbourne, Australia), and the enhanced chemiluminescence (ECL) system (Amersham, Little Chalfont, Buckinghamshire, UK). To re-blot, the membrane was first stripped of antibodies in 0.1 M glycine, pH 2.9.
Oligonucleotides targeting SPSB 1 ([…] (SEQ ID NO:84)) were designed as previously described (27). shRNAmir constructs were created by annealing the oligonucleotides in 5× annealing buffer (0.5 M potassium acetate, 0.01 M magnesium acetate and 0.15 M HEPES pH 7.4) for 5 min at 95° C., followed by incubation for 10 min at 80° C. and a 5-7 h ramp from 80° C. to 4° C. (reducing by 0.5° C. every 2.5 min). Annealed oligonucleotides were subsequently subcloned into the LMP vector (Dickins et al; 2005 & 2006). Non-sense shRNAmir and luciferase control constructs in the LMS vector were a kind gift from Dr. Marnie Blewitt (Majewski et al, 2008) and Dr Ross Dickins (unpublished data) respectively. To create retrovirus, 293T cells were transfected as described previously (Majewski et al, 2008). The medium was replaced with DMEM containing 10% FBS and 20% L-cell conditioned medium 24 h after transfection and viral supernatants harvested the following day. Total bone marrow was collected and non-adherent haematopoietic cells were harvested by centrifugation and red blood cells removed by washing in red cell removal buffer (154.4 mM NH4Cl, 0.1 mM EDTA, 12 mM. NaHCO3). Retroviral supernatants were applied to culture dishes pre-treated with 32 μg/ml RetroNectin (Takara Biosciences, Shiga, Japan) and centrifuged for 1 h at 4000 g at 4° C. […]
To analyse the kinetics of iNOS induction in BMDM infected with an Spsb1 shRNA construct cells were stimulated with 100 ng/ml LPS or 25 μg/ml PolyIC for various times, then lysed and iNOS expression analysed by Western blot. […]
(In western blotting, separated proteins are transferred to a membrane and probed.)

Data set [3] concerns NO production in BMDM. The data set is described as follows: Nitric oxide production in shRNA infected BMDM (Griess assay). How it is done: As a measure of nitric oxide production, 100 μl of culture supernatants were assayed for nitrite by reaction with 10 μl of Griess reagent A (1% sulfanilamide in 5% phosphoric acid) for 10 min at room temperature, followed by the addition of 10 μl Griess reagent B [0.14% N-(1-naphthyl)ethylenediamine dihydrochloride], and nitrite content determined essentially as described (Scott et al., 2000).
Oligonucleotides targeting SPSB 1 ([…] (SEQ ID NO:84)) were designed as previously described (27). shRNAmir constructs were created by annealing the oligonucleotides in 5× annealing buffer (0.5 M potassium acetate, 0.01 M magnesium acetate and 0.15 M HEPES pH 7.4) for 5 min at 95° C., followed by incubation for 10 min at 80° C. and a 5-7 h ramp from 80° C. to 4° C. (reducing by 0.5° C. every 2.5 min). Annealed oligonucleotides were subsequently subcloned into the LMP vector (Dickins et al; 2005 & 2006). Non-sense shRNAmir and luciferase control constructs in the LMS vector were a kind gift from Dr. Marnie Blewitt (Majewski et al, 2008) and Dr Ross Dickins (unpublished data) respectively. To create retrovirus, 293T cells were transfected as described previously (Majewski et al, 2008). The medium was replaced with DMEM containing 10% FBS and 20% L-cell conditioned medium 24 h after transfection and viral supernatants harvested the following day. Total bone marrow was collected and non-adherent haematopoietic cells were harvested by centrifugation and red blood cells removed by washing in red cell removal buffer (154.4 mM NH4Cl, 0.1 mM EDTA, 12 mM. NaHCO3). Retroviral supernatants were applied to culture dishes pre-treated with 32 μg/ml RetroNectin (Takara Biosciences, Shiga, Japan) and centrifuged for 1 h at 4000 g at 4° C. Bone marrow cells were infected by co-culturing with the virus in the presence of 4 μg/ml 30 polybrene-containing medium for 24 h. […]
Using a Griess assay, NO production was measured in response to 20 ng/ml LPS and 25 μg/ml PolyIC in BMDM infected with non-sense or Spsb1 shRNA at 24 h and 48 h. […]

In the case of “Spsb1 shRNA: retroviral shRNAmir construct targeting SPSB1, CCAGATGCAGAGAATAAACTA (SEQ ID NO:84), in LMP vector”, the Spsb1 expression result in data set [1] was “significantly reduced”. In addition, the “kinetics of iNOS clearance” value in data set [2] (20 ng/ml LPS or 25 μg/ml PolyIC overnight, stimulus removed) is reported as “essentially unchanged”. Moreover, in data set [2] (20 ng/ml LPS or 25 μg/ml PolyIC overnight, stimulus removed, compared to non-sense), the “iNOS amount in degradation experiment” value is “increased amount of iNOS”. Moreover, in data set [2] (100 ng/ml LPS or 25 μg/ml PolyIC), the “iNOS protein amount during induction timecourse” value is listed as “more iNOS protein”. In data set [2] (100 ng/ml LPS or 25 μg/ml PolyIC, non-sense shRNA control 8 h), the “time of first observed iNOS expression post-treatment” value stood at 6 h. Moreover, the NO production result is on record as “increase” in data set [3] (24 h, LPS and PolyIC, compared to non-sense); “significant increase” in data set [3] (48 h, LPS, p=0.0446); “increase” in data set [3] (48 h, PolyIC).
